Like-named read-outs stand apart in the source and are kept apart here.
Key:
[1] = tested on: Human Acute T Lymphoblastic Leukemia Cells (Molt-4); experiment: Inhibition of Molt-4 cell proliferation (CellTiter luminescent viability); assay type: cell-based; conditions: for inhibition at 0.01 µM / inhibition at 0.5 µM: Homo sapiens; for inhibition at 0.01 µM: read-out: Inhibition Rate at 10 nM (%); for inhibition at 0.5 µM: read-out: Inhibition Rate at 500 nM (%); for Inhibition Rate at 10 nM (%) / Inhibition Rate at 500 nM (%): Molt-4
[2] = tested on: Human myeloid monocytic leukemia cell line (MV-4-11); experiment: Inhibition of MV-4-11 cell proliferation (CellTiter luminescent viability); assay type: cell-based; conditions: MV-4-11; for inhibition at 0.01 µM / inhibition at 0.5 µM: Homo sapiens, MV4-11; for inhibition at 0.01 µM: read-out: Inhibition Rate at 10 nM (%); for inhibition at 0.5 µM: read-out: Inhibition Rate at 500 nM (%)
How it was run: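 Cells are seeded in 96-well plates, cultured at 37 °C, 5% CO2, and treated next day with 5-fold serial compound dilutions (stock series from 2000 μM; 0.5 μL into 100 μL medium). Viability is read by CellTiter-Meiluncell luminescence after the set exposure, and IC50 is taken from growth-inhibition curves.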

[3] = tested on: Human diffuse large B-cell lymphoma cell line (WSU-DLCL2); experiment: Inhibition of WSU-DLCL2 cell proliferation (CellTiter luminescent viability); assay type: cell-based; conditions: for inhibition at 0.01 µM / inhibition at 0.5 µM: Homo sapiens; for inhibition at 0.01 µM: WSUDLCL2, 10 nM, read-out: Inhibition Rate at 10 nM (%); for inhibition at 0.5 µM: WSUDLCL2, 500 nM, read-out: Inhibition Rate at 500 nM (%)
Experimental: (§1) The tumor cells used herein were cultured in a cell culture medium listed in table 3 at 37 °C in an incubator with 5% CO2. Prior to experimentation, all cell lines used were correctly identified by STR profiling, and tested negative for mycoplasma contamination using a mycoplasma detection kit through routine screenings.
(§2) The IC50 values of the compounds of the present disclosure (including the compounds in Table 1, Table 2, and Examples 1-468) were determined using the CellTiter-Meiluncell Luminescent Cell Viability Assay Kit from Dalian Meilun Biotech Co., Ltd. The detailed procedure is as follows: Tumor cells were seeded in 96-well cell culture plates at the densities specified in Table 4. On the following day, the test compounds of the present disclosure were subjected to serial dilution. The dilution can be performed according to one of the following two methods: • (1) The first dilution method: The test compounds of the present disclosure (including the compounds in Table 1, Table 2, and Examples 1-468) were subjected to 5-fold serial dilutions starting from a highest concentration of 2000 μM, resulting in a total of 9 concentrations from high to low (2000, 400, 80, 16, 3.2, 0.64, 0.128, 0.0256, 0.00512 μM). Subsequently, 0.5 μL of the test compound dilution was transferred into the 96-well plate containing the cells, with each well containing 100 μL of cell culture medium. […] Into the 96-well plate, the diluted test compounds and corresponding detection reagents were added, resulting in final test compound concentrations of 500 nM and 10 nM, respectively. The experimental procedure is described below using the diluted 2 μM test compound as an example.
(§3) 0.5 μL of the aforementioned diluted compound of the present disclosure (including the compounds in Table 1, Table 2, and Examples 1-468) was added to the seeded cells in 100 μL of medium, yielding a final test compound concentration of 10 nM. After the cells were treated with the compounds of the present disclosure for a specified period, the cell viability assay reagent was added to the culture medium according to the kit's instructions to determine cell viability. […] All controls were treated using the same procedure as the compounds of the present disclosure. The growth inhibition curves for the compounds of the present disclosure were plotted using Prism GraphPad software, and the IC50 values were calculated therefrom.

[4] = biological target: T1, human Cereblon WT GST-tagged protein (CRBN) (Homo sapiens, UniProt Q96SW2); experiment: CRBN binding by HTRF (Cereblon binding kit)
T1 construct: purchased CISBIO 64BDCRBNPEH
T1 sequence (Q96SW2 whole entry): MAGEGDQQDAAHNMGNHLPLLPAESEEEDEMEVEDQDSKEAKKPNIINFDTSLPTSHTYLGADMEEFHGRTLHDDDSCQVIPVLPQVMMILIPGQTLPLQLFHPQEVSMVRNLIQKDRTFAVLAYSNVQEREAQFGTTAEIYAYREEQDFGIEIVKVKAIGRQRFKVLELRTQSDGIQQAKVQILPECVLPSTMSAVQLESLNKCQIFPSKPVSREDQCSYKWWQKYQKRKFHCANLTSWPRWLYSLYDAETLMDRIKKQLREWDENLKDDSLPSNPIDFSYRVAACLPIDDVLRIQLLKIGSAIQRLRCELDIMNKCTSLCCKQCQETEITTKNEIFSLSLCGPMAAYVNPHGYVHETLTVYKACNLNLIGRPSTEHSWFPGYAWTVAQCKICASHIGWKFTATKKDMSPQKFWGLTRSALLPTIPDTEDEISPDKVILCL
How it was run: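 GST-tagged human Cereblon WT was incubated 3 h at room temperature with compound, thalidomide-Re tracer and Eu anti-GST antibody. Final compound concentrations were 10 to 0.00064 µM (7 points) or 2 and 0.5 µM. Inhibition rate was calculated from HTRF 665/620 nm ratios versus solvent and blank controls.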

[5] = tested on: Human acute lymphocytic leukemia T lymphocytes cell line (CCRF-CEM); experiment: Inhibition of CCRF-CEM cell proliferation (CellTiter luminescent viability); assay type: cell-based; conditions: Homo sapiens, 96 h, Table IH2, BCL-2 inhibitor-based; for inhibition at 0.01 µM: 10 nM, read-out: Inhibition Rate at 10 nM (%); for inhibition at 0.5 µM: 500 nM, read-out: Inhibition Rate at 500 nM (%)
[6] = tested on: Human prostate cancer cell line (NCI-H358); experiment: Inhibition of NCI-H358 cell proliferation (CellTiter luminescent viability); conditions: Table IH1, BCL-2 inhibitor-based, 96 hours
Experimental: as §1, §2, §3

[7] = biological target: T2, BCL-2 (Homo sapiens, UniProt P10415); experiment: Western blot degradation of BCL-2; assay type: cell-based; conditions: Molt-4 Cell; 24 hours
T2 construct: expression of target proteins in cells; endogenous in cells
T2 sequence (P10415 whole entry): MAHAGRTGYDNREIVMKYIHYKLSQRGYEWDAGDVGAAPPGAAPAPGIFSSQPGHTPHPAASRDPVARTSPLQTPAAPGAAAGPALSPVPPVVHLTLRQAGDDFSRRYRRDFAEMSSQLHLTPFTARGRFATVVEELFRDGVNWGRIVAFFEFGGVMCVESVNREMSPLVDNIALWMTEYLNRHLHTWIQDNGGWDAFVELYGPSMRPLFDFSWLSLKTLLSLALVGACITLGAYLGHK
Experimental: Conventional Western blot assay was performed to evaluate the effects of the compounds of the present disclosure on the expression of target proteins in cells.
(1) Cell Seeding and Protein Harvesting: The selected cells were processed according to the cell seeding procedure and protein harvesting procedure in Table II-2.
(2) To the collected supernatant, 5×SDS sample loading buffer was added, followed by denaturation at 95 °C for 5 minutes. The denatured samples were then separated by SDS-PAGE electrophoresis on a polyacrylamide gel. Proteins were transferred to a nitrocellulose membrane (0.45 μm NC membrane), blocked with blocking buffer at room temperature for 1 hour, and subjected to antibody incubation and development procedures according to the antibody manufacturer's instructions (Cell Signaling Technology).
Half-Maximal Degradation Concentration value (the drug concentration required for degrading proteins by 50%, abbreviated as DC50) reads method: comparing the grayscale values of Western blot bands from drug-treated samples with those from blank DMSO-treated controls, and identifying the drug concentration range at which the grayscale value is half that of the DMSO-treated control bands.
DC50 values can be calculated using ImageJ software to measure grayscale values of Western blot bands from drug-treated samples. The concentration-response curve is fitted to estimate the drug concentration corresponding to half the grayscale value.
Target protein remaining (%) refers to the percentage of target protein remaining in cells after treatment with protein degrader compounds.
Calculation method for target protein remaining (%): Use ImageJ software to measure grayscale values of Western blot bands from drug (protein degrader)-treated samples. The grayscale value of drug-treated bands is divided by that of internal control protein bands, and the resulting quotient is normalized to obtain the relative percentage of remaining target protein after protein degrader treatment.
Target protein degradation rate (%)=1−target protein remaining (%).

[8] = MOLT-4, Molt-4, 10 nM, Table IN2
[9] = MOLT-4, Molt-4, 500 nM, Table IN2
[10] = MOLT-4, 96 h, Table IH3, BCL-2 inhibitor-based, Molt-4, 10 nM, 96 hours
[11] = MOLT-4, 96 h, Table IH3, BCL-2 inhibitor-based, Molt-4, 500 nM, 96 hours

SMILES | Degradation of substrate protein BCL-2 (substrate protein remaining %) [7] | inhibition at 0.01 µM [1, 8] [%] | inhibition at 0.5 µM [1, 9] [%] | inhibition at 0.01 µM ([2]; 10 nM) [%] | inhibition at 0.5 µM ([2]; 500 nM) [%] | inhibition at 0.01 µM [3] [%] | inhibition at 0.5 µM [3] [%] | inhibition at 0.01 µM [1, 10] [%] | inhibition at 0.5 µM [1, 11] [%] | inhibition at 0.01 µM [5] [%] | inhibition at 0.5 µM [5] [%] | further results
C[C@@H]1CNC(=O)c2cc3ccc(C(=O)Nc4cnn(Cc5ccc(N6CCN(Cc7ccc8c(c7)CN(N7CCC(=O)NC7=O)C8=O)CC6)cc5)c4)nc3n21 [GT-08149, (R)—N-(1-(4-(4-((2-(2,4-dioxotetrahydropyrimidin-1(2H)-yl)-1-oxoisoindolin-5-yl)methyl)piperazin-1-yl)benzyl)-1H-pyrazol-4-yl)-9-methyl-6-oxo-6,7,8,9-tetrahydropyrido[3′,2′: 4,5]pyrrolo[1,2-a]pyrazine-2-carboxamide] |  | -5 to 0 | 30 to 50 | 5 to 10 | 70 to 80 | 5 to 10 | 40 to 50 |  |  |  |  | inhibition at 0.5 µM ([4]; 0.5 μM, read-out: Inhibition Rate at 0.5 μM (%)): 20 to 30%; inhibition at 2 µM ([4]; 2 μM, read-out: Inhibition Rate at 2 μM (%)): 53 to 60%
CC1(C)CCC(c2ccc(Cl)cc2)=C(CN2CCN(c3ccc(C(=O)NS(=O)(=O)c4ccc(N[C@H](CCN5C6CCC5CN(Cc5ccc7c(c5)CN(N5CCC(=O)NC5=O)C7=O)C6)CSc5ccccc5)c(S(=O)(=O)C(F)(F)F)c4)cc3)CC2)C1 [GT-07814, 4-(4-((4′-chloro-4,4-dimethyl-3,4,5,6-tetrahydro-[1,1′-biphenyl]-2-yl)methyl)piperazin-1-yl)-N-((4-(((2R)-4-(3-((2-(2,4-dioxotetrahydropyrimidin-1(2H)-yl)-1-oxoisoindolin-5-yl)methyl)-3,8-diazabicyclo[3.2.1]octan-8-yl)-1-(phenylthio)butan-2-yl)amino)-3-((trifluoromethyl)sulfonyl)phenyl)sulfonyl)benzamide] | A (0%≤substrate protein remaining %≤80%) |  |  |  |  |  |  | 80 to 100 | 80 to 100 | 50 to 60 | 80 to 100 | inhibition at 0.01 µM ([6]; NCI-H358, 10 nM, read-out: Inhibition Rate at 10 nM (%)): 15 to 20%; inhibition at 0.5 µM ([6]; NCI-H358, 500 nM, read-out: Inhibition Rate at 500 nM (%)): 40 to 50%
CC(C)CCN1c2nc(Nc3cc(F)c(O)c(F)c3)ncc2N(C)C(=O)C1C (stereo not shown) [BI-D1870, reference compound] |  |  |  |  |  |  |  |  |  |  |  | Inhibition Rate at 10 nM (%) ([1]; 10 nM, Table IN2): INb2 (−15% < INb2 < −5%); Inhibition Rate at 10 nM (%) ([1]; 10 nM, Table IN3): INc1 (0% < INcl < 5%); Inhibition Rate at 500 nM (%) ([1]; 500 nM, Table IN2): INb5 (5% ≤ INb5 < 10%); Inhibition Rate at 500 nM (%) ([1]; 500 nM, Table IN3): INc3 (10% ≤ INc3 < 15%); Inhibition Rate at 10 nM (%) ([2]; 10 nM): INa3 (−5% ≤ INa3 ≤ 0%); Inhibition Rate at 500 nM (%) ([2]; 500 nM): INa7 (20% ≤ INa7 < 30%); Inhibition Rate at 10 nM (%) ([3]; 10 nM): INd1 (0% < INd1 < 5%); Inhibition Rate at 500 nM (%) ([3]; 500 nM): INd5 (20% ≤ INd5 < 30%)
C[C@@H]1CNC(=O)c2cc3ccc(C(=O)Nc4cnn(Cc5ccc(N6CCC(N7CCN(Cc8ccc9c(c8)CN(N8CCC(=O)NC8=O)C9=O)CC7)CC6)cc5)c4)nc3n21 [GT-08151, (R)—N-(1-(4-(4-(4-((2-(2,4-dioxotetrahydropyrimidin-1(2H)-yl)-1-oxoisoindolin-5-yl)methyl)piperazin-1-yl)piperidin-1-yl)benzyl)-1H-pyrazol-4-yl)-9-methyl-6-oxo-6,7,8,9-tetrahydropyrido[3′,2′: 4,5]pyrrolo[1,2-a]pyrazine-2-carboxamide] |  | 0 to 5 | 30 to 50 | 5 to 10 | 80 to 100 | 10 to 15 | 50 to 60 |  |  |  |  | inhibition at 0.01 µM ([1]; MOLT-4, Molt-4, 10 nM, Table IN3): 20 to 30%; inhibition at 0.5 µM ([1]; MOLT-4, Molt-4, 500 nM, Table IN3): 10 to 15%

Now from value to compound, other results behind:

Degradation of substrate protein BCL-2 (substrate protein remaining %) [7] | SMILES | inhibition at 0.01 µM [1, 8] [%] | inhibition at 0.5 µM [1, 9] [%] | inhibition at 0.01 µM ([2]; 10 nM) [%] | inhibition at 0.5 µM ([2]; 500 nM) [%] | inhibition at 0.01 µM [3] [%] | inhibition at 0.5 µM [3] [%] | inhibition at 0.01 µM [1, 10] [%] | inhibition at 0.5 µM [1, 11] [%] | inhibition at 0.01 µM [5] [%] | inhibition at 0.5 µM [5] [%] | further results
A (0%≤substrate protein remaining %≤80%) | CC1(C)CCC(c2ccc(Cl)cc2)=C(CN2CCN(c3ccc(C(=O)NS(=O)(=O)c4ccc(N[C@H](CCN5C[C@H]6C[C@@H]5CN6Cc5ccc6c(c5)C(=O)N(N5CCC(=O)NC5=O)C6=O)CSc5ccccc5)c(S(=O)(=O)C(F)(F)F)c4)cc3)CC2)C1 [GT-07816, 4-(4-((4′-chloro-4,4-dimethyl-3,4,5,6-tetrahydro-[1,1′-biphenyl]-2-yl)methyl)piperazin-1-yl)-N-((4-(((R)-4-((1R,4R)-5-((2-(2,4-dioxotetrahydropyrimidin-1(2H)-yl)-1,3-dioxoisoindolin-5-yl)methyl)-2,5-diazabicyclo[2.2.1]heptan-2-yl)-1-(phenylthio)butan-2-yl)amino)-3-((trifluoromethyl)sulfonyl)phenyl)sulfonyl)benzamide] |  |  |  |  |  |  | 10 to 15 | 60 to 70 | 5 to 10 | 40 to 50 | 
A (0%≤substrate protein remaining %≤80%) | CC1(C)CCC(c2ccc(Cl)cc2)=C(CN2CCN(c3ccc(C(=O)NS(=O)(=O)c4ccc(N[C@H](CCN5CC6CCC(C5)N6Cc5ccc6c(c5)C(=O)N(N5CCC(=O)NC5=O)C6=O)CSc5ccccc5)c(S(=O)(=O)C(F)(F)F)c4)cc3)CC2)C1 [GT-07817, 4-(4-((4′-chloro-4,4-dimethyl-3,4,5,6-tetrahydro-[1,1′-biphenyl]-2-yl)methyl)piperazin-1-yl)-N-((4-(((2R)-4-(8-((2-(2,4-dioxotetrahydropyrimidin-1(2H)-yl)-1,3-dioxoisoindolin-5-yl)methyl)-3,8-diazabicyclo[3.2.1]octan-3-yl)-1-(phenylthio)butan-2-yl)amino)-3-((trifluoromethyl)sulfonyl)phenyl)sulfonyl)benzamide] |  |  |  |  |  |  |  |  |  |  | 

Source: patent US20260364184A1, “COMPOUND BASED ON OXOISOINDOLINYL-SUBSTITUTED TETRAHYDROPYRIMIDINE-DIONE AND USE THEREOF” (GLUETACS THERAPEUTICS (SHANGHAI) CO., LTD., priority 2023, published 2026)
